Measured values reported in ChEMBL document CHEMBL1136735, “Design and synthesis of naphthalenic dimers as selective MT1 melatoninergic ligands” (J Med Chem, 2003).
Calls of active or inactive are those of the source. No cut-off for these calls is given here.

How the values were obtained:
[1] = target: T1, Melatonin receptor type 1B (Homo sapiens, UniProt P49286); assay: Binding affinity for human Melatonin receptor type 1B stably transfected in human embryonic kidney cells (HEK 293) using 2-[125I]iodomelatonin as radioligand; assay type: cell-based, HEK293
T1 sequence (P49286 whole entry): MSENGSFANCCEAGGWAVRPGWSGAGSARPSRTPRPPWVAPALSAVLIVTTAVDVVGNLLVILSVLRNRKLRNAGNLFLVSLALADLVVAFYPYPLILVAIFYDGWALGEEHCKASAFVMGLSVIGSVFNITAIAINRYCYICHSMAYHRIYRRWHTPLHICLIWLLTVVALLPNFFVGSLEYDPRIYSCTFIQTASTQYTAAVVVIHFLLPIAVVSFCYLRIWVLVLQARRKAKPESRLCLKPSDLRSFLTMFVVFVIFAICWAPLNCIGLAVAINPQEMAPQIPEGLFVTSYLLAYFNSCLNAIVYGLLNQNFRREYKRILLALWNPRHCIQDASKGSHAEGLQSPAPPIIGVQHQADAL

[2] = target: T2, Melatonin receptor type 1A (Homo sapiens, UniProt P48039); assay: Binding affinity for human Melatonin receptor type 1A stably transfected in human embryonic kidney cells (HEK 293) using 2-[125I]iodomelatonin as radioligand; assay type: cell-based, HEK293
[3] = target: T3, Melatonin receptor type 1B (Homo sapiens) (UniProt P49286); conditions: CHO
T3 sequence (whole entry): T1 sequence (P49286 whole entry)

[4] = target: T2, Melatonin receptor type 1A; conditions: CHO

T2 sequence (P48039 whole entry): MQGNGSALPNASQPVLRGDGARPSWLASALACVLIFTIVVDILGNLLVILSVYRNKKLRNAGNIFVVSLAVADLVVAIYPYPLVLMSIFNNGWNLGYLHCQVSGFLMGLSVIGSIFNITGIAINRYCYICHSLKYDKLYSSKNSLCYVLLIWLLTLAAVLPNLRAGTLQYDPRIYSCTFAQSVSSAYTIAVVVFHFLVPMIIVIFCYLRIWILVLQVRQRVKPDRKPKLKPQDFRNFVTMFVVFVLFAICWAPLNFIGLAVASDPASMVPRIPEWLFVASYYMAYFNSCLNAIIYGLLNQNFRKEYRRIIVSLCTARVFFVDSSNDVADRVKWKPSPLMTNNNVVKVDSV

Ki [1] [nM]	Ki [2] [nM]	IA [3]	IA [4]	Structure (SMILES)
0.18	0.05	–	–	CC(=O)NCCc1cccc2ccc(OCCCCCCCCOc3ccc4cccc(CCNC(C)=O)c4c3)cc12
182	2.05	–	–	CC(=O)NCCc1cccc2ccc(OCCOc3ccc4cccc(CCNC(C)=O)c4c3)cc12
0.04	0.03	–	–	CC(=O)NCCc1cccc2ccc(OCCCCCCCCCCOc3ccc4cccc(CCNC(C)=O)c4c3)cc12
72.7	0.6	–	–	CC(=O)NCCc1cccc2ccc(OCCCCOc3ccc4cccc(CCNC(C)=O)c4c3)cc12
2.33	0.08	–	–	CC(=O)NCCc1cccc2ccc(OCCCCCCOc3ccc4cccc(CCNC(C)=O)c4c3)cc12
1.74	0.05	–	–	CC(=O)NCCc1cccc2ccc(OCCCCCOc3ccc4cccc(CCNC(C)=O)c4c3)cc12
112	0.5	inactive	inactive	CC(=O)NCCc1cccc2ccc(OCCCOc3ccc4cccc(CCNC(C)=O)c4c3)cc12
